Four molecules from publication PMC5715787, “Structural basis for antibody recognition of the NANP repeats in Plasmodium falciparum circumsporozoite protein” (Proceedings of the National Academy of Sciences of the …, 2017) can be followed below.

In one experiment the target is Fab311. The experiment in a line: ITC affinity measurement of peptides to Fab311. In kind it is binding, human. The note with it: for Kd / No. of sites: ITC, 25 °C, Dulbecco's PBS, Fab311 10.3 μM in cell, peptide 89–122 μM in syringe, single-site model, average and SD of triplicate experiments; for affinity/Kd compared with the (NPNA)3 peptide: Fab311, ITC, change vs (NPNA)3. How it is done:
(§1) ITC affinity measurements were performed using a MicroCal Auto-iTC200 instrument (GE Healthcare). […]
(§2) General. All peptides were ordered from Innopep Inc. with a 10-μg/mL solution of the Fab of interest in blocking buffer. The purity of >98% and contained chlorine counter ions. The pep- membrane was then washed three times for 5 min each in TBST tides have N-terminal acetylation and C-terminal amidation to buffer, after which it was incubated for 2 h with an anti-human eliminate charges at the peptide termini. Fab genes were codon Fab secondary antibody conjugated to HRP (Sigma-Aldrich) at a optimized, synthesized, and cloned into pHCMV3 vectors by 1:20,000 dilution in blocking buffer. […]
(§3) Antibodies 311 and 317 were selected forITC. A MicroCal Auto-iTC200 (GE Healthcare) was used to structural studies because of their functional activity, high avidity perform ITC measurements. Before the experiments, all proteins index, and similar heavy-chain germline genes. were extensively dialyzed against Dulbecco’s PBS (Thermo Evaluation of the Protective Activity of mAbs. mAbs (100 μg for Fischer). The peptides were placed in the syringe at a concentration Ab311 and 300 μg for Ab317 and Ab2A10) against the NANP of 122μM for Ac-NPNANPNA-NH2, 116 μM for Ac-repeats of P. falciparum CSP were administered to 7- to 8-wk-old NPNANPNANPNA-NH2,89μM for Ac-[…]- […]
(§4) C57BL/6 mice (five mice per group) by i.v. injection [in 200 μLof NH2, and 110 μM for Ac-DPNANPNVDPNA-NH2, whereas the […]
(§5) PBS (pH 7.4)]. The mice were challenged 5–10 min later by i.v. concentrations of Fab fragments in the cell were 10.3 and 9.7 μM injection with 2,000 P. berghei chimeric sporozoites expressing for Fab311 and Fab317, respectively. The Fab and peptide P. falciparum CSP (3D7 strain) generated as previously described concentrations were determined by UV absorbance at 280 nm (22). Forty hours later, livers were harvested, and RNA was and 205 nm. Molar extinction coefficients for the peptides were isolated to quantify the malaria-specific 18s rRNA levels by real- estimated using a previously published method (35). Experi-time PCR (34). Inhibition of parasite development was calcu- ments were carried out in triplicate at 25 °C, except for lated by comparing the parasite liver burdens of experimental Fab317 binding to Ac-[…]-NH2, which was […]
(§6) and naive control mice. The statistical analyses were done with done in duplicate, and consisted of 16 injections of 2.45 μL each, the Mann–Whitney U test. Data were plotted using GraphPad with injection duration of 4.9 s, inject io n interval of 180 s, and Prism 6.0 software. No samples were excluded from statistical reference power of 5 μCa l. Fi tt in g of the integrate d titrati on analyses. peaks was performed with Origin 7.0 software using a single-site binding model. The first data point and any outliers were Expression and Purification of Recombinant CSP. The rsCSP con- excluded from the fit. […]
(§7) Two 1-L NaCl, 2.7 mM KCl, pH 8.0) with a 5:1 molar ratio of (NPNA)3 cultures were inoculated the next day with 25 mL overnight peptide to Fab. Crystals were grown using sitting-drop vapor culture and were grown at 37 °C. When the optical density at diffusion with a well solution containing 0.1 M MES (pH 6.0), 600 nm reached a value of 1, the cultures were induced with 36% PEG400, 5% PEG3000 for the Fab311–peptide complex, 1 mM isopropyl β-D-1-thiogalactopyranoside for 6 h. The cells and 0.1 M sodium citrate (pH 4.0), 1 M lithium chloride, 20% then were harvested and lysed by microfluidization. The lysate PEG6000 for the Fab317–peptide complex. Crystals were grown was incubated overnight with Ni cOmplete resin (Roche) and at 298 K and typically appeared within 3 d. Fab311–peptide was eluted using a buffer containing 200 mM imidazole. Typi- crystals were cryo-cooled without additional cryoprotection, cally, 10 mg of protein was obtained per 2 L of culture. Samples while Fab317–peptide crystals were cryoprotected by soaking in […]

The target in a further experiment is Fab317. The experiment in a line: ITC affinity measurement of peptides to Fab317. Particulars: for Kd / No. of sites: ITC, 25 °C, Dulbecco's PBS, Fab317 9.7 μM in cell, single-site model. The experiment is classed as binding, human. How it is done:
as §1, §2, §3, §4, §5, §6, §7

The mark [1] stands for this setting: peptide 110–122 μM in syringe, average and SD of triplicate experiments.
Setting [2] is: peptide 89 μM in syringe, duplicate experiments.

Regarding `CC(=O)N[C@@H](CC(N)=O)C(=O)N1CCC[C@H]1C(=O)N[C@@H](CC(N)=O)C(=O)N[C@@H](C)C(=O)N[C@@H](CC(N)=O)C(=O)N1CCC[C@H]1C(=O)N[C@@H](CC(N)=O)C(=O)N[C@@H](C)C(=O)N[C@@H](CC(N)=O)C(=O)N1CCC[C@H]1C(=O)N[C@@H](CC(N)=O)C(=O)N[C@@H](C)C(N)=O` [(NPNA)3, Ac-NPNANPNANPNA-NH2], the dissociation constant (Kd) on Fab311 stood at 305 ± 60 nM; on Fab317 (setting [1]), 78 ± 16 nM. The No. of sites with Fab311 is 0.74 ± 0.02; in the experiment with Fab317 (setting [1]), 1.27 ± 0.02.

For the molecule “Ac-NPNVDPNANPNV-NH2 [NPNVDPNANPNV, Ac-NPNVDPNANPNV-NH2]”, on Fab311, the “affinity/Kd compared with the (NPNA)3 peptide” value is “approximately fivefold lower affinity”, the Kd is 1790 ± 189 nM and the No. of sites amounted to 1.24 ± 0.02. Further, the “relative affinity (in words)” value in the experiment on Fab317 (Fab317, ITC, NVDP-containing peptides, comparator not clearly stated) is reported as “substantially lower”. At Fab317 (setting [2]), the affinity, expressed as Kd, was 12100 ± 2490 nM and the No. of sites worked out at 1.72 ± 0.13.

As to “Ac-DPNANPNVDPNA-NH2 [DPNANPNVDPNA, Ac-DPNANPNVDPNA-NH2]”, on Fab311, the “affinity/Kd compared with the (NPNA)3 peptide” value is on record as “approximately fivefold lower affinity”, the equilibrium dissociation constant (Kd) was 1370 ± 390 nM and the No. of sites is 1.20 ± 0.03. In addition, at Fab317 (setting [1]), the equilibrium dissociation constant (Kd) was determined as 448 ± 68 nM and the No. of sites is recorded as 1.64 ± 0.05.

Turning to `CC(=O)N[C@@H](CC(N)=O)C(=O)N1CCC[C@H]1C(=O)N[C@@H](CC(N)=O)C(=O)N[C@@H](C)C(=O)N[C@@H](CC(N)=O)C(=O)N1CCC[C@H]1C(=O)N[C@@H](CC(N)=O)C(=O)N[C@@H](C)C(N)=O` [(NPNA)2, Ac-NPNANPNA-NH2], at Fab311, the “affinity/Kd compared with the (NPNA)3 peptide” value is “almost identical to that of the (NPNA)3 peptide”; the affinity, expressed as Kd, was 296 ± 19 nM; the No. of sites is given as 1.50 ± 0.08. On Fab317 (Fab317, ITC, vs (NPNA)3), the “Kd increase compared with (NPNA)3” value was found to be 2.2 fold. For the same molecule, on Fab317 (setting [1]), binding was put at a Kd of 173 ± 8 nM and the No. of sites is on record as 1.41 ± 0.05.

One may read the Kd as the constant that tells how readily two partners part at equilibrium. Read a low Kd as tighter binding.
